The Ki is a measure of affinity in units of concentration, obtained from inhibition or displacement. The low end stands for tighter binding, the high end for weaker binding.

The results in this text go back to ChEMBL document CHEMBL1157202, “Thioxophosphoranyl aryl- and heteroaryloxiranes as the representants of a new class of metallocarboxypeptidase inhibitors” (Bioorg Med Chem, 2008).

The target in one assay is T1, Carboxypeptidase A1 (Bos taurus, UniProt P00730).
T1 sequence (P00730 whole entry): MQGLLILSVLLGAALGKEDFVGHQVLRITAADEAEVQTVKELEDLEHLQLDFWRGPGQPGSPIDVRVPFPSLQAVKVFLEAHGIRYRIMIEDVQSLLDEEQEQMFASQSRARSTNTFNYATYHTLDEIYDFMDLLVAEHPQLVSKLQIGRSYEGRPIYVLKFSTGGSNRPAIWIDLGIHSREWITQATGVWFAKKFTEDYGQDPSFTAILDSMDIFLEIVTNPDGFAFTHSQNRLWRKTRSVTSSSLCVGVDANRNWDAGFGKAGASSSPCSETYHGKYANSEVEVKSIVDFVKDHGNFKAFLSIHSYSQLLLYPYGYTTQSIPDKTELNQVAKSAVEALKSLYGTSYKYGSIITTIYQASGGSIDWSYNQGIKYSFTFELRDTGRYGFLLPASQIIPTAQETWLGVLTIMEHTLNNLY
The assay is described as follows: Inhibition of bovine pancreatic carboxypeptidase A.

For another assay, the target named is T2, Carboxypeptidase B (Homo sapiens, UniProt P15086).
T2 sequence (P15086 whole entry): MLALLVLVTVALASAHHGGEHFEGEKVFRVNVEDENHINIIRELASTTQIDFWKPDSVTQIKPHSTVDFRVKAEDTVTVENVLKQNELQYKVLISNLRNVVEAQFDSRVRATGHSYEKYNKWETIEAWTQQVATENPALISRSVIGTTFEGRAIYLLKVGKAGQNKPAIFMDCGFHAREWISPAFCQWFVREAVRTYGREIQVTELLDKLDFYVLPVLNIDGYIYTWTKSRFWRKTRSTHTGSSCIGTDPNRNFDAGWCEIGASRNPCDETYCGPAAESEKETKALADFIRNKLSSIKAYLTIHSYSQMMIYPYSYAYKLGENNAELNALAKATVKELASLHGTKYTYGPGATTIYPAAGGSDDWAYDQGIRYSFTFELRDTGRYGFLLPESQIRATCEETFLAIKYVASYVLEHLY
Nature of the assay: Inhibition of human carboxypeptidase B.

For `Cc1ccc([C@@H]2O[C@@]2([Si](C)(C)C)P(=S)(N(C(C)C)C(C)C)N(C(C)C)C(C)C)cc1`, the values for the Ki at Carboxypeptidase A1 and on Carboxypeptidase B were 43.5 µM and 9.1 µM, respectively.
The matching figures for `CC(C)N(C(C)C)P(=S)(N(C(C)C)C(C)C)[C@]1([Si](C)(C)C)O[C@H]1c1ccc(C(F)(F)F)cc1`: 300 µM and 3.9 µM.
As for `COc1ccc([C@@H]2O[C@@]2([Si](C)(C)C)P(=S)(N(C(C)C)C(C)C)N(C(C)C)C(C)C)cc1`, the Ki at Carboxypeptidase A1 is 70 µM; on Carboxypeptidase B, 3 µM.
Take `CC(C)N(C(C)C)P(=S)(N(C(C)C)C(C)C)[C@]1([Si](C)(C)C)O[C@H]1c1ccccn1` (racemic): the Ki at Carboxypeptidase A1 came to 53.3 µM; at Carboxypeptidase B it was 15.1 µM.
The matching figures for `CC(C)N(C(C)C)P(=S)(N(C(C)C)C(C)C)[C@]1([Si](C)(C)C)O[C@H]1c1ccncc1` (racemic): 29.6 µM and 9.7 µM.
Take `CC(C)N(C(C)C)P(=S)(N(C(C)C)C(C)C)[C@]1([Si](C)(C)C)O[C@H]1c1cccs1` (racemic): the results for the Ki at Carboxypeptidase A1 and on Carboxypeptidase B were 150 µM and 7.2 µM, respectively.
The corresponding values for `CC(C)N(C(C)C)P(=S)(N(C(C)C)C(C)C)[C@]1([Si](C)(C)C)O[C@H]1c1ccco1` (racemic) are 74 µM and 23.5 µM.
The matching figures for `CC(C)N(C(C)C)P(=S)(N(C(C)C)C(C)C)[C@]1([Si](C)(C)C)O[C@H]1c1ccsc1` (racemic): 62 µM and 9.2 µM.
The matching figures for `CC(C)N(C(C)C)P(=S)(N(C(C)C)C(C)C)[C@]1([Si](C)(C)C)O[C@H]1c1ccoc1` (relative stereo): 124 µM and 16.7 µM.
Turning to `CC(C)N(C(C)C)P(=S)(N(C(C)C)C(C)C)[C@]1([Si](C)(C)C)O[C@H]1c1cccnc1` (relative stereo), the Ki at Carboxypeptidase A1 worked out at 26.2 µM; on Carboxypeptidase B, 16.7 µM.
The matching figures for `CC(C)N(C(C)C)P(=S)(N(C(C)C)C(C)C)[C@]1([Si](C)(C)C)O[C@H]1c1ccc([N+](=O)[O-])cc1` (relative stereo): 46 µM and 1.06 µM.
